Experimental data from patent publication US7449290B2, “Method for selecting genetically transformed cells” (Expressive Research B.V., priority 2001, dated 2008).

Experiments:
[1] = test system: Arabidopsis thaliana Col. O and La-er seedlings; assay: Sensitivity to trehalose of Arabidopsis thaliana seedlings (Col.O and La-er) on agar medium; type: in vivo; details: 100 mM trehalose in 0.8% agar, half-strength MS medium, pH 5.7; compared with 100 mM mannitol control
Procedure: Seeds were sterilized using the gas-phase protocol of Clough and Bent (1998) (Clough S. J., Bent A. F., Plant J. 16(6): 735-743, 199.8) in Eppendorf tubes. The sterilized sees were then resuspended in sterile water and arranged on 0.8% w/v agar medium containing half-strength Murashigue and Skoog medium (MS medium; Murashigue T, Skoog F, Physiol. Plant. 15: 473-497, 1977), vitamins and MES buffer (pH 5.7), supplemented with mannitol or trehalose in a final concentration of 100 mM. […] The upper row of plants are the Arabidopsis thaliana Landsberg erecta (La-er), and the lower row of plants are the Arabidopsis thaliana Colombia (Col.O).

[2] = test system: non-transformed Arabidopsis thaliana Col.O seedlings; assay: Selection of transgenic Arabidopsis seedlings on trehalose medium; type: in vivo; details: 100 mM trehalose, 1/2 MS agar, after 12 days at 22° C.
Procedure: Arabidopsis thaliana Col.O plants were transformed with Aarobacterium with the binary plasmid as described in Example 2C, via the “floral dip” protocol (Clough and Bent, supra). The obtained dry seeds were sterilized and sown on 0.8% w/v solid agar medium having therein half-strength MS-salts (½ MS-salts), vitamins and MES buffer pH 5.7, supplemented with trehalose in a final concentration of 100 mM. The dishes were incubated for 3 days at 4° C. (stratification), whereafter a drop of ethanol was applied to the inside of the cover and dishes were transferred to 22° C. […] The transformed resistant seedlings are green, have long roots and primary leaves. […] In moist conditions the cotyledons become pale.

## OC[C@H]1O[C@H](O[C@H]2O[C@H](CO)[C@@H](O)[C@H](O)[C@H]2O)[C@H](O)[C@@H](O)[C@@H]1O [trehalose, Trehalose]
[1]
  development of plants from seeds (root system): lesser development
[2]
  phenotype of non-transformed, sensitive seedlings: accumulate anthocyanins, develop no primary leaves
  root length of non-transformed, sensitive seedlings: ≤ 3 mm
